Source: publication PMC4010472, “Pharmacokinetics and Efficacy of Topically Applied Nonsteroidal Anti-Inflammatory Drugs in Retinochoroidal Tissues in Rabbits” (PLoS ONE, 2014)
Entries after “also recorded” stand apart in the source; their conditions may differ. Read-outs that look alike come from different tables or passages of the source.

Columns and labels:
[1] = system: laser-induced choroidal neovascularization; parameters: method as in PMID 21709668; details: topical, rats ref 17; cited from earlier work
[2] = rabbit, in vivo
[3] = humans, adjunctive use of topical bromfenac ref 18; cited from earlier work
[4] = system: retinal PGE2; details: topical, lipopolysaccharide-injected rats ref 41; cited from earlier work
[5] = cited from earlier work
[6] = in vivo; details: Kbl:JW, rabbit, topical or ocular
[7] = system: concanavalin A-induced retinochoroidal inflammation; test: Concanavalin A-induced intraocular inflammation, vitreous protein concentration (blood-retinal barrier breakdown); details: rabbit, 72 hours after intravitreal Con A; 50 µL of 0.1% eye drops 3 times/day for 4 days, or indomethacin 20 mg/kg s.c. once a day; vs saline, Dunnett's test
[8] = system: COX-2; details: cited from earlier work
[9] = Ocular distribution after single topical instillation: retinochoroidal tissue (LC-MS/MS, non-compartmental PK); details: Kbl:JW, rabbit, in vivo, topical or ocular, 30 µL of 0.1% eye drops
[10] = in vivo; details: Kbl:JW, rabbit, topical or ocular; remark: listed apart in the source
[11] = molecular target: T1, human COX-2 (Homo sapiens, UniProt P35354); test: COX-2 inhibitory activity, human recombinant COX-2, PGE2 EIA; type: biochemical; details: for IC50: human recombinant COX-2, 0.3 µM arachidonic acid, PGE2 EIA, read-out: IC50 COX-2, [95% Confidence interval]
T1 construct: purchased Sigma-Aldrich; host or cells: baculovirus-infected Sf21 cells
T1 sequence (P35354 18-604): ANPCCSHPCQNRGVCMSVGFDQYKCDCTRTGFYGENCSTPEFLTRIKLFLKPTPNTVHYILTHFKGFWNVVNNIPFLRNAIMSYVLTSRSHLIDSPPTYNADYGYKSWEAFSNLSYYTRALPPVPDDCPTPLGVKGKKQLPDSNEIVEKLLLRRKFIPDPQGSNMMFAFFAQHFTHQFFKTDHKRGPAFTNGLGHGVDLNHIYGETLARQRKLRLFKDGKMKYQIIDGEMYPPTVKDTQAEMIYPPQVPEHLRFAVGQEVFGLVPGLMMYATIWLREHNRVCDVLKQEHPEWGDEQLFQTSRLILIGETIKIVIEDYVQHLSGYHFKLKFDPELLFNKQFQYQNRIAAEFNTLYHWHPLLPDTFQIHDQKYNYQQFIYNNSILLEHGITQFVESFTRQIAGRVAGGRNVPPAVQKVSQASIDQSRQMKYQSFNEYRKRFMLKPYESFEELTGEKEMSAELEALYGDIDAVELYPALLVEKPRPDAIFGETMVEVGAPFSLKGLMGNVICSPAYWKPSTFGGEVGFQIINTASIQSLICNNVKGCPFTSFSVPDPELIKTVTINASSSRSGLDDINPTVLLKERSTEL
Protocol: (§1) The endogenous human COX-1 inhibitory activity was assayed by a published method with a slight modification, using venous blood of healthy volunteers with a written informed consent (obtained from Taipei Blood Center, Taipei, Taiwan). Test samples (0.3 to 1000 nM) and vehicle (1% dimethyl sulfoxide in the final assay) were pre-incubated with washed human platelets (5×10^7/mL) in modified buffer (Hanks' balanced salt solution with 15 mM HEPES, pH 7.4) for 15 minutes at 37°C. Arachidonic acid (100 µM, Cayman Chemical Co., Ann Arbor, MI) was added to initiate the reaction, and samples were incubated for an additional 15 minutes at 37°C. At the end of the incubation period, the reaction was terminated by the addition of 1 N HCl. Aliquots were then removed to determine the amount of PGE2 produced with the EIA kit. The amount of PGE2 was spectrophotometrically measured in the range of 50–6400 pg/mL at 450 nm according to the instructions of the kit using a competitive microtiter-based immunoassay method. Tests were performed with 7 concentrations of each drug to construct a dose-response curve and to determine the concentration causing a half-maximal inhibition (IC50) relative to the control values. Each series of concentrations was run in triplicate for each drug. […] The equation for a 4-parameter logistic fitting was, [drawing 1]
where a is the maximum value of the sigmoid curve; b is the Hill slope; c is (a + d)/2 (or IC50); and d is the lowest value of the sigmoid curve.
Human recombinant COX-2 isolated from baculovirus-infected Sf21 cells (Sigma-Aldrich) was used for this assay. Test articles (0.1–1000 nM) and vehicle (1% dimethyl sulfoxide in the final assay) were pre-incubated with buffer (100 mM Tris-HCl, pH 7.7) containing 0.11 U COX-2, 1 mM glutathione, 1 µM hematin, and 0.5 mM phenol for 15 minutes at 37°C. Arachidonic acid (0.3 µM) was added to initiate the reaction, and samples were incubated for an additional 5 minutes at 37°C. At the end of the incubation period, the reaction was terminated by adding 1 N HCl. The amount of PGE2 produced was determined with the EIA kit, and the IC50 of each drug for COX-2 was obtained as described.

[12] = 21 day-once daily instillation of 0.1% 14C-bromfenac; 7.2 ng/mL × 80.5% ref 35; cited from earlier work
[13] = system: COX-1; details: cited from earlier work
[14] = Simulated repeated-dose pharmacokinetics in retinochoroidal tissue compared with IC50 of COX-2; parameters: species or system rabbit
[15] = molecular target: human COX-1 (Homo sapiens, UniProt P23219); test: biochemical
human COX-1, sequence (P23219 24-599): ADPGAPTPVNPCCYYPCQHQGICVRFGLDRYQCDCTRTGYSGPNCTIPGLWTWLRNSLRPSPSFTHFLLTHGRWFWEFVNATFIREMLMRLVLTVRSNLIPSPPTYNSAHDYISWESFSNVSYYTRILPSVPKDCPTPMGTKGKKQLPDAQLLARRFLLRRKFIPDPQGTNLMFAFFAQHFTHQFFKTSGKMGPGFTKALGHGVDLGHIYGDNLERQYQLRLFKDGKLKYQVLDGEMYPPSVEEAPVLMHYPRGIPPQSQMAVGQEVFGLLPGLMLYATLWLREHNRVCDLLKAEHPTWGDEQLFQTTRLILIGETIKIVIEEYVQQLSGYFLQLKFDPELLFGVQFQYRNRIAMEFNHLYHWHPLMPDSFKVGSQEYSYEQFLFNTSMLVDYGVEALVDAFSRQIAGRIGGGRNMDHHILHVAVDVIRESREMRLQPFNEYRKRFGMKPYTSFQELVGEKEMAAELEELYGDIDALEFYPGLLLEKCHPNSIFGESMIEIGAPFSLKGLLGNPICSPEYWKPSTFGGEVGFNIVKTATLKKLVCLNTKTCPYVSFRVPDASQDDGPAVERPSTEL
Protocol: as §1, with “1] […]” for “1]”

[16] = repeated dosing simulated from single dose; diclofenac and amfenac (nepafenac) three/day at 8 hr interval, bromfenac two/day at 12 hr interval
[17] = system: Con A-induced intraocular inflammation; parameters: method as in PMID 14635785; details: 0.5% nepafenac eye drops, 5 times/day regimen ref 22; cited from earlier work
[18] = system: retinal vascular leakage; details: topical, lipopolysaccharide-injected rats ref 41; cited from earlier work
[19] = sheep-derived enzymes or combination of sheep and recombinant human enzymes ref 23
[20] = sheep-derived enzymes or combination of sheep and recombinant human enzymes ref 24

AUC0–8 [2] [ng·h/g]	Cmax [6] [ng/g]	AUC(0-t) ([10]; in vivo) [ng·h/mL]	Cmax ([10]; in vivo) [ng/mL]	Structure (SMILES)	retinal PGE2 levels [4]	protein concentration in the vitreous body [7]	IC50 [8, 19] [µM]	IC50 [11] [µM]	IC50 [13, 19] [µM]	other results
119 ± 27	38.2 ± 18.1	972 ± 44	300 ± 110	O=C(O)Cc1ccccc1Nc1c(Cl)cccc1Cl [Diclofenac, diclofenac]		decrease was not significant				hydrophobicity (Log P) ([5]; ref 32): 4.31; half-life [6]: 1.89 h; k el [6]: 0.000102 s⁻¹; half-life ([10]; in vivo): 1.94 h; k el ([10]; in vivo): 9.94e-05 s⁻¹
41.9 ± 3.4	12.5 ± 7.2	131 ± 11	25.9 ± 7.4	Nc1c(CC(=O)O)cccc1C(=O)c1ccccc1 [Amfenac, amfenac]			0.00177	0.0204	0.138	IC50 [15]: 0.0153 µM; IC50 [8, 20]: 0.15 µM; simulated concentration in aqueous humor relative to IC50 of COX-2 [16]: almost always higher than the IC50 of COX-2 although it was slightly less than the IC50 at the trough level; Ratio of IC50: IC50 for COX-2/IC50 for COX-1 ([11]; human COX-2 to COX-1): 1.3; IC50 [13, 20]: 0.25 µM; simulated concentration in retinochoroidal tissue relative to IC50 of COX-2 ([14]; repeated dosing simulated from single dose, diclofenac and amfenac (nepafenac) three/day at 8 hr interval, bromfenac two/day at 12 hr interval): lower than the corresponding IC50 values at the troughs; also recorded: less than the IC50 of COX-2 at the trough level
				NC(=O)Cc1cccc(C(=O)c2ccccc2)c1N [Nepafenac, nepafenac]	significantly reduced	decrease was not significant				Tmax ([10]; aqueous humor, 30 µL of 0.1% eye drops): 0.5 h; inhibition of the breakdown of the blood-retinal barrier [17]: significantly inhibit
				COc1ccc2c(c1)c(CC(=O)O)c(C)n2C(=O)c1ccc(Cl)cc1 [indomethacin]	significantly reduced	significantly reduced				retinal vascular leakage [18]: able to prevent

Structure (SMILES)	AUC0–8 [2] [ng·h/g]	Cmax [6] [ng/g]	AUC(0-t) ([10]; in vivo) [ng·h/mL]	Cmax ([10]; in vivo) [ng/mL]	retinal PGE2 levels [4]	protein concentration in the vitreous body [7]	IC50 [8, 19] [µM]	IC50 [11] [µM]	IC50 [13, 19] [µM]	other results
Nc1c(CC(=O)O)cccc1C(=O)c1ccc(Br)cc1 [Bromfenac, 2-amino-3-(4-bromobenzoyl) phenylacetic acid]	[…]	15.8 ± 7.2	[…]	[…]	[…]	[…]	[…]	0.00745	[…]	laser-induced choroidal neovascularization [1]: inhibited; frequency of intravitreous ranibizumab [3]: could reduce; hydrophobicity (Log P) ([5]; ref 27): […]; hydrophobicity (Log P) ([5]; ref 33): 3.22; half-life [9]: 4.69 h; half-life ([10]; in vivo, 30 µL of 0.1% eye drops): […]; inhibitory activity on COX-2, times more potent than amfenac ([11]; bromfenac vs amfenac): […]; inhibitory activity on COX-2, times more potent than diclofenac ([11]; bromfenac vs diclofenac): […]; concentration of bromfenac in retinochoroidal tissues at 8 hours after the last instillation [12]: […]; simulated concentration in retinochoroidal tissues at 8 hours after the last instillation ([14]; simulation model, 21 day-once daily instillation (data not shown)): […]
